Data published in PubChem BioAssay AID248 (DTP/NCI, 2004).
“And” between values parts separate entries of the source, which are not always exact repeats. Equal values may be shown once. Toxic doses and inconclusive results are not listed.

Tested on: L1210 leukemia ip in BDF1 mice, survival T/C
Test: NCI In Vivo Anticancer Drug Screen. Data for tumor model L1210 Leukemia (intraperitoneal) in B6D2F1 (BDF1) mice
Settings: endpoint: mean survival time, higher = longer survival
Procedure, shortened: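 Value reflects the ratio of survival in compound-treated mice to survival in vehicle-treated controls, with both groups carrying the same transplanted tumor.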

[1] = dose: 25.0 mg/kg/injection, schedule: Q01DX009 (ip), vehicle: saline
[2] = dose: 50.0 mg/kg/injection, schedule: Q01DX009 (ip), vehicle: saline
[3] = dose: 100.0 mg/kg/injection, schedule: Q01DX009 (ip), vehicle: saline
[4] = dose: 50.0 mg/kg/injection, schedule: Q01DX001 (ip), vehicle: carboxymethylcellulose (CMC)
[5] = dose: 100.0 mg/kg/injection, schedule: Q01DX001 (ip), vehicle: carboxymethylcellulose (CMC)
[6] = dose: 200.0 mg/kg/injection, schedule: Q01DX001 (ip), vehicle: carboxymethylcellulose (CMC)
[7] = dose: 400.0 mg/kg/injection, schedule: Q01DX001 (ip), vehicle: carboxymethylcellulose (CMC)
[8] = dose: 100.0 mg/kg/injection, schedule: Q01DX009 (ip), vehicle: saline with Tween-80
[9] = dose: 100.0 mg/kg/injection, schedule: Q04DX003 (ip), vehicle: saline
[10] = dose: 200.0 mg/kg/injection, schedule: Q04DX003 (ip), vehicle: saline
[11] = dose: 100.0 mg/kg/injection, schedule: Q04DX003 (ip), vehicle: Klucel (hydroxypropylcellulose) (HPC)
[12] = dose: 200.0 mg/kg/injection, schedule: Q04DX003 (ip), vehicle: Klucel (hydroxypropylcellulose) (HPC)
[13] = dose: 400.0 mg/kg/injection, schedule: Q04DX003 (ip), vehicle: Klucel (hydroxypropylcellulose) (HPC)
[14] = dose: 100.0 mg/kg/injection, schedule: Q01DX001 (ip), vehicle: saline

## COc1ccc(Cl)cc1NC(=O)N(CCCl)N=O
dose: 0.1 mg/kg/injection, schedule: Q01DX009 (ip), vehicle: carboxymethylcellulose (CMC)
  T/C: 103 % of control
dose: 1.0 mg/kg/injection, schedule: Q01DX001 (ip), vehicle: carboxymethylcellulose (CMC)
  T/C: 122 % of control
dose: 1.0 mg/kg/injection, schedule: Q01DX009 (ip), vehicle: Klucel (hydroxypropylcellulose) (HPC)
  T/C: 105 % of control
dose: 2.0 mg/kg/injection, schedule: Q01DX001 (ip), vehicle: carboxymethylcellulose (CMC)
  T/C: 117 % of control
dose: 2.12 mg/kg/injection, schedule: Q01DX001 (ip), vehicle: Klucel (hydroxypropylcellulose) (HPC)
  T/C: 117 % of control
dose: 4.25 mg/kg/injection, schedule: Q01DX001 (ip), vehicle: Klucel (hydroxypropylcellulose) (HPC)
  T/C: 119 % of control
dose: 5.0 mg/kg/injection, schedule: Q01DX009 (ip), vehicle: Klucel (hydroxypropylcellulose) (HPC)
  T/C: 105 % of control
dose: 6.0 mg/kg/injection, schedule: Q01DX009 (ip), vehicle: carboxymethylcellulose (CMC)
  T/C: 153 % of control
dose: 8.8 mg/kg/injection, schedule: Q01DX009 (ip), vehicle: carboxymethylcellulose (CMC)
  T/C: 166 % of control
dose: 15.0 mg/kg/injection, schedule: Q01DX001 (ip), vehicle: carboxymethylcellulose (CMC)
  T/C: 151 % of control
dose: 17.0 mg/kg/injection, schedule: Q01DX001 (ip), vehicle: Klucel (hydroxypropylcellulose) (HPC)
  T/C: 158 % of control
dose: 17.0 mg/kg/injection, schedule: Q01DX009 (ip), vehicle: Klucel (hydroxypropylcellulose) (HPC)
  T/C: 174 % of control
dose: 20.0 mg/kg/injection, schedule: Q01DX009 (ip), vehicle: carboxymethylcellulose (CMC)
  T/C: 100 % of control
dose: 26.0 mg/kg/injection, schedule: Q01DX001 (ip), vehicle: carboxymethylcellulose (CMC)
  T/C: 151 % of control and 196 % of control
dose: 26.0 mg/kg/injection, schedule: Q01DX009 (ip), vehicle: Klucel (hydroxypropylcellulose) (HPC)
  T/C: 87 % of control
dose: 30.0 mg/kg/injection, schedule: Q01DX001 (ip), vehicle: carboxymethylcellulose (CMC)
  T/C: 151 % of control
dose: 30.0 mg/kg/injection, schedule: Q01DX009 (ip), vehicle: carboxymethylcellulose (CMC)
  T/C: 98 % of control
dose: 40.0 mg/kg/injection, schedule: Q01DX001 (ip), vehicle: carboxymethylcellulose (CMC)
  T/C: 93 % of control
dose: 75.0 mg/kg/injection, schedule: Q01DX001 (ip), vehicle: carboxymethylcellulose (CMC)
  T/C: 95 % of control

## [F][Sn]([c]1ccc(Cl)cc1)([c]1ccc(Cl)cc1)[c]1ccc(Cl)cc1
dose: 0.18 mg/kg/injection, schedule: Q04DX003 (ip), vehicle: other
  T/C: 97 % of control
dose: 0.37 mg/kg/injection, schedule: Q04DX003 (ip), vehicle: other
  T/C: 101 % of control
dose: 0.75 mg/kg/injection, schedule: Q04DX003 (ip), vehicle: other
  T/C: 93 % of control
dose: 1.5 mg/kg/injection, schedule: Q04DX003 (ip), vehicle: other
  T/C: 100 % of control

## NC(CCCCNC(c1ccccc1)(c1ccccc1)c1ccccc1)C(=O)O (configuration not stated)
dose: 12.5 mg/kg/injection, schedule: Q01DX009 (ip), vehicle: saline
  T/C: 102 % of control
[1]
  T/C: 101 % of control
[2]
  T/C: 101 % of control
[3]
  T/C: 97 % of control

## CCCCN(Cl)CCCC
dose: 100.0 mg/kg/injection, schedule: Q04DX002 (ip), vehicle: saline + alcohol
  T/C: 101 % of control

## CN(N=O)c1ccc(C=C2c3ccccc3-c3ccccc32)cc1
[4]
  T/C: 102 % of control
[5]
  T/C: 106 % of control
[6]
  T/C: 96 % of control
[7]
  T/C: 102 % of control

## COc1c2c(c(OC)c3c(=O)c4ccccc4[nH]c13)OCO2
dose: 62.5 mg/kg/injection, schedule: Q01DX001 (ip), vehicle: carboxymethylcellulose (CMC)
  T/C: 100 % of control
dose: 125.0 mg/kg/injection, schedule: Q01DX001 (ip), vehicle: carboxymethylcellulose (CMC)
  T/C: 97 % of control
dose: 250.0 mg/kg/injection, schedule: Q01DX001 (ip), vehicle: carboxymethylcellulose (CMC)
  T/C: 105 % of control
dose: 500.0 mg/kg/injection, schedule: Q01DX001 (ip), vehicle: carboxymethylcellulose (CMC)
  T/C: 97 % of control

## CCOC(=O)/C=C\C(=O)O.[Mn]
dose: 25.0 mg/kg/injection, schedule: Q01DX009 (ip), vehicle: saline with Tween-80
  T/C: 97 % of control
dose: 25.0 mg/kg/injection, schedule: Q04DX003 (ip), vehicle: saline
  T/C: 108 % of control
dose: 50.0 mg/kg/injection, schedule: Q01DX009 (ip), vehicle: saline with Tween-80
  T/C: 108 % of control
dose: 50.0 mg/kg/injection, schedule: Q04DX003 (ip), vehicle: saline
  T/C: 106 % of control
[8]
  T/C: 110 % of control
[9]
  T/C: 103 % of control and 108 % of control
[10]
  T/C: 120 % of control

## C#CC(O)C1OC(C)(C)OC1C1COC(C)(C)O1 (configuration not stated)
[11]
  T/C: 97 % of control
[12]
  T/C: 92 % of control
[13]
  T/C: 94 % of control

## O=c1cc(-c2ccccc2)oc(-c2ccc(Cl)cc2)c1
dose: 25.0 mg/kg/injection, schedule: Q01DX009 (ip), vehicle: Klucel (hydroxypropylcellulose) (HPC)
  T/C: 98 % of control
dose: 50.0 mg/kg/injection, schedule: Q01DX009 (ip), vehicle: Klucel (hydroxypropylcellulose) (HPC)
  T/C: 98 % of control
dose: 100.0 mg/kg/injection, schedule: Q01DX009 (ip), vehicle: Klucel (hydroxypropylcellulose) (HPC)
  T/C: 100 % of control
[11]
  T/C: 97 % of control
[12]
  T/C: 90 % of control
[13]
  T/C: 100 % of control

## O=C(Nc1ccccc1)Oc1c(Cl)c(Cl)c(Cl)c(Cl)c1Cl
dose: 100.0 mg/kg/injection, schedule: Q04DX002 (ip), vehicle: Klucel (hydroxypropylcellulose) (HPC)
  T/C: 98 % of control
dose: 200.0 mg/kg/injection, schedule: Q04DX002 (ip), vehicle: Klucel (hydroxypropylcellulose) (HPC)
  T/C: 104 % of control

## Nc1cc(=O)[nH][nH]1
[3]
  T/C: 98 % of control
[9]
  T/C: 102 % of control
dose: 200.0 mg/kg/injection, schedule: Q01DX009 (ip), vehicle: saline
  T/C: 106 % of control
dose: 200.0 mg/kg/injection, schedule: Q01DX Z (ip), vehicle: carboxymethylcellulose (CMC)
  T/C: 115 % of control
dose: 200.0 mg/kg/injection, schedule: Q01DX Z (ip), vehicle: saline
  T/C: 115 % of control
[10]
  T/C: 107 % of control
dose: 300.0 mg/kg/injection, schedule: Q01DX Z (ip), vehicle: carboxymethylcellulose (CMC)
  T/C: 115 % of control
dose: 300.0 mg/kg/injection, schedule: Q01DX Z (ip), vehicle: saline
  T/C: 123 % of control
dose: 400.0 mg/kg/injection, schedule: Q01DX009 (ip), vehicle: saline
  T/C: 120 % of control
dose: 400.0 mg/kg/injection, schedule: Q04DX003 (ip), vehicle: saline
  T/C: 105 % of control
dose: 450.0 mg/kg/injection, schedule: Q01DX Z (ip), vehicle: carboxymethylcellulose (CMC)
  T/C: 121 % of control
dose: 675.0 mg/kg/injection, schedule: Q01DX Z (ip), vehicle: saline
  T/C: 112 % of control

## CC1CCC(=O)OCCCC(=O)C1 (configuration not stated)
[14]
  T/C: 93 % of control
dose: 400.0 mg/kg/injection, schedule: Q01DX001 (ip), vehicle: saline
  T/C: 95 % of control

## COc1ncnc2c1ncn2-c1cccc(C)c1
[4]
  T/C: 104 % of control
[5]
  T/C: 98 % of control
[6]
  T/C: 104 % of control
[7]
  T/C: 104 % of control

## CCCCNC(C)(C)CCl
[1]
  T/C: 103 % of control
dose: 25.0 mg/kg/injection, schedule: Q04DX003 (ip), vehicle: water
  T/C: 110 % of control
[2]
  T/C: 102 % of control
dose: 50.0 mg/kg/injection, schedule: Q01DX009 (ip), vehicle: water
  T/C: 91 % of control
dose: 50.0 mg/kg/injection, schedule: Q04DX003 (ip), vehicle: water
  T/C: 116 % of control
[14]
  T/C: 104 % of control
dose: 100.0 mg/kg/injection, schedule: Q04DX003 (ip), vehicle: water
  T/C: 98 % of control and 102 % of control

## CCCCNC(=O)CC(C)C(=O)O (configuration not stated)
[8]
  T/C: 100 % of control
dose: 200.0 mg/kg/injection, schedule: Q01DX009 (ip), vehicle: saline with Tween-80
  T/C: 98 % of control
dose: 400.0 mg/kg/injection, schedule: Q01DX009 (ip), vehicle: saline with Tween-80
  T/C: 100 % of control
